Columns and labels:
[1] = system: corn; test: Test B pre-/postemergence herbicide test; type: in vivo, Zea mays; conditions: for Corn plant response rating: postemergence
Procedure, shortened: (§1)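 Herbicidal effect was judged by eye on a 0–100 scale after plants stood 13 to 15 days in the greenhouse following pre- or postemergence treatment with surfactant-containing formulations.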

[2] = system: giant foxtail; test: Test B pre-/postemergence herbicide test; type: in vivo, Setaria faberi; conditions: for Foxtail, Giant plant response rating: postemergence
Procedure, shortened: as §1

[3] = system: large crabgrass; test: Test A pre-/postemergence herbicide test; type: in vivo, Digitaria sanguinalis
Procedure, shortened: (§2)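 Visual injury rating on a 0–100 scale (0 no effect, 100 complete control) versus untreated controls, about ten days after treatment in greenhouse. Pre: directed soil spray onto seeded sandy loam. Post: spray to runoff on plants 2–10 cm tall at one- to two-leaf stage.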

[4] = system: barnyardgrass; test: Test B flooded paddy test; type: in vivo, Echinochloa crus-galli; conditions: 1000 g ai/ha, scale 0 to 100 (0 no effect, 100 complete control)
Procedure, shortened: (§3)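 Visual ratings, 0 (no effect) to 100 (complete control), made versus controls after 13–15 d greenhouse. Paddy plants treated at 2-leaf stage; postemergence plants at 1- to 4-leaf stage, 2–18 cm tall.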

[5] = system: pigweed; test: Test B pre-/postemergence herbicide test; type: in vivo, Amaranthus retroflexus; conditions: for Pigweed plant response rating: postemergence
Procedure, shortened: as §1

[6] = system: morningglory; test: Test A pre-/postemergence herbicide test; type: in vivo, Ipomoea spp.
Procedure, shortened: as §2

[7] = system: small flower umbrella sedge; test: Test B flooded paddy test; type: in vivo, Cyperus difformis; conditions: 1000 g ai/ha, scale 0 to 100 (0 no effect, 100 complete control)
Procedure, shortened: as §3

[8] = system: velvetleaf; test: Test A pre-/postemergence herbicide test; type: in vivo, Abutilon theophrasti
Procedure, shortened: as §2

[9] = system: wild oat; test: Test B postemergence herbicide test; type: in vivo, Avena fatua; conditions: postemergence
Procedure, shortened: (§4)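 Formulated test chemicals went onto postemergence plants measuring 2 to 18 cm, at one to four leaves. For the paddy assay, species had reached two leaves. Scoring took place 13–15 days later by eye, relative to untreated plants, using 0 for no effect up to 100 for full control.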

[10] = system: barnyardgrass; test: Test B pre-/postemergence herbicide test; type: in vivo, Echinochloa crus-galli; conditions: for Barnyardgrass plant response rating: postemergence
Procedure, shortened: (§5)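 Visual rating, 0 (no effect) to 100 (complete control), versus untreated controls after 13–15 d in greenhouse. Pre- and postemergence applications (postemergence plants 2–18 cm, 1–4 leaves); flooded paddy arm at 2-leaf stage. Compounds in non-phytotoxic solvent plus surfactant.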

[11] = system: redroot pigweed; test: Test A pre-/postemergence herbicide test; type: in vivo, Amaranthus retroflexus
Procedure, shortened: as §2

[12] = system: barnyardgrass; test: Test A pre-/postemergence herbicide test; type: in vivo, Echinochloa crus-galli
Procedure, shortened: as §2

[13] = system: velvetleaf; test: Test B pre-/postemergence herbicide test; type: in vivo, Abutilon theophrasti; conditions: for Velvetleaf plant response rating: postemergence
Procedure, shortened: as §1

[14] = system: Surinam grass; test: Test B pre-/postemergence herbicide test; type: in vivo, Urochloa decumbens; conditions: for Surinam Grass plant response rating: postemergence
Procedure, shortened: as §1

[15] = system: wheat; test: Test B postemergence herbicide test; type: in vivo, Triticum aestivum; parameters: key to Wheat plant response rating: 0 = no effect, 100 = complete control; conditions: postemergence
Procedure, shortened: as §4

[16] = system: morningglory; test: Test B pre-/postemergence herbicide test; type: in vivo, Ipomoea coccinea; conditions: for Morningglory plant response rating: postemergence
Procedure, shortened: as §5

[17] = system: cocklebur; test: Test B pre-/postemergence herbicide test; type: in vivo, Xanthium strumarium; conditions: for Cocklebur plant response rating: postemergence
Procedure, shortened: as §5

[18] = system: blackgrass; test: Test B postemergence herbicide test; type: in vivo, Alopecurus myosuroides; conditions: postemergence
Procedure, shortened: as §3

[19] = system: lambsquarters; test: Test B pre-/postemergence herbicide test; type: in vivo, Chenopodium album; conditions: for Lambsquarters plant response rating: postemergence
Procedure, shortened: as §1

[20] = system: giant foxtail; test: Test A pre-/postemergence herbicide test; type: in vivo, Setaria faberi
Procedure, shortened: as §2

[21] = system: rice; test: Test B flooded paddy test; type: in vivo, Oryza sativa; conditions: 1000 g ai/ha, scale 0 to 100 (0 no effect, 100 complete control)
Procedure, shortened: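 Treated at 2-leaf (paddy) or 1–4-leaf, 2–18 cm (postemergence); greenhouse 13–15 d; visual score vs control, 0 none to 100 complete control; dash = not tested.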

[22] = system: ducksalad; test: Test B flooded paddy test; type: in vivo, Heteranthera limosa; conditions: 1000 g ai/ha, scale 0 to 100 (0 no effect, 100 complete control)
Procedure, shortened: as §3

[23] = system: large crabgrass; test: Test B pre-/postemergence herbicide test; type: in vivo, Digitaria sanguinalis; conditions: for Crabgrass, Large plant response rating: postemergence
Procedure, shortened: as §1

[24] = 125 g ai/ha, 0 = no effect, 100 = complete control, preemergence
[25] = 125 g ai/ha, visual rating, scale 0 (no effect) to 100 (complete control)
[26] = 500 g ai/ha, visual rating, 0 = no effect, 100 = complete control, preemergence
[27] = 500 g ai/ha, scale 0 to 100, 0 is no effect, 100 is complete control
[28] = Postemergence, 125 g ai/ha, 0 to 100 scale, 0 no effect, 100 complete control
[29] = Postemergence, 500 g ai/ha, 0 to 100 scale, 0 no effect, 100 complete control
[30] = preemergence, 125 g ai/ha, visual injury, 0 to 100 scale (0 no effect, 100 complete control)
[31] = preemergence, 500 g ai/ha, visual injury, 0 to 100 scale (0 no effect, 100 complete control)
[32] = 125 g ai/ha, 0 is no effect, 100 is complete control, preemergence
[33] = Postemergence, 2000 g ai/ha, 0 to 100 scale, 0 no effect, 100 complete control
[34] = Preemergence, 2000 g ai/ha, visual rating, 0 to 100 scale (0 no effect, 100 complete control)

SMILES: CC(=NO)c1cccc(NC(=O)c2cc(C(C)(C)C)n[nH]2)c1 [Compound 311]
- Corn plant response rating (0 to 100 scale) [1, 24]: 0
- Corn plant response rating [1, 25]: 0
- Plant response rating, Corn [1, 26]: 0
- Corn plant response rating [1, 27]: 0
- Foxtail, Giant plant response rating (0 to 100 scale) [2, 24]: 0
- Foxtail, Giant plant response rating [2, 25]: 0
- Plant response rating, Foxtail, Giant [2, 26]: 0
- Foxtail, Giant plant response rating [2, 27]: 0
- Crabgrass, Large plant response rating [3, 28]: 0
- Crabgrass, Large plant response rating [3, 29]: 10
- Crabgrass, Large plant response rating [3, 30]: 0
- Crabgrass, Large plant response rating [3, 31]: 0
- Barnyardgrass plant response rating [4]: 50
- Pigweed plant response rating (0 to 100 scale) [5, 24]: 0
- Pigweed plant response rating [5, 25]: 0
- Plant response rating, Pigweed [5, 26]: 0
- Pigweed plant response rating [5, 27]: 0
- Morningglory plant response rating [6, 28]: 0
- Morningglory plant response rating [6, 29]: 0
- Morningglory plant response rating [6, 30]: 0
- Morningglory plant response rating [6, 31]: 0
- Sedge, Umbrella plant response rating [7]: 30
- Velvetleaf plant response rating [8, 28]: 0
- Velvetleaf plant response rating [8, 29]: 10
- Velvetleaf plant response rating [8, 30]: 0
- Velvetleaf plant response rating [8, 31]: 0
- Oat, Wild plant response rating [9, 25]: 0
- Oat, Wild plant response rating [9, 27]: 0
- Barnyardgrass plant response rating (0 to 100 scale) [10, 24]: 0
- Barnyardgrass plant response rating [10, 25]: 0
- Plant response rating, Barnyardgrass [10, 26]: 0
- Barnyardgrass plant response rating [10, 27]: 0
- Pigweed plant response rating [11, 28]: 0
- Pigweed plant response rating [11, 29]: 0
- Pigweed plant response rating [11, 30]: 0
- Pigweed plant response rating [11, 31]: 0
- Barnyardgrass plant response rating [12, 28]: 0
- Barnyardgrass plant response rating [12, 29]: 10
- Barnyardgrass plant response rating [12, 30]: 0
- Barnyardgrass plant response rating [12, 31]: 0
- Velvetleaf plant response rating [13, 25]: 0
- Plant response rating, Velvetleaf [13, 26]: 0
- Velvetleaf plant response rating [13, 27]: 0
- Surinam Grass plant response rating (0 to 100 scale) [14, 24]: 0
- Surinam Grass plant response rating [14, 25]: 0
- Plant response rating, Surinam Grass [14, 26]: 0
- Surinam Grass plant response rating [14, 27]: 0
- Wheat plant response rating [15, 25]: 0
- Wheat plant response rating [15, 27]: 0
- Morningglory plant response rating (0 to 100 scale) [16, 24]: 0
- Morningglory plant response rating [16, 25]: 0
- Plant response rating, Morningglory [16, 26]: 0
- Morningglory plant response rating [16, 27]: 0
- Cocklebur plant response rating (0 to 100 scale) [17, 24]: 0
- Cocklebur plant response rating [17, 25]: 0
- Plant response rating, Cocklebur [17, 26]: 0
- Cocklebur plant response rating [17, 27]: 0
- Blackgrass plant response rating [18, 25]: 0
- Blackgrass plant response rating [18, 27]: 0
- Lambsquarters plant response rating (0 to 100 scale) [19, 24]: 0
- Lambsquarters plant response rating [19, 25]: 0
- Plant response rating, Lambsquarters [19, 26]: 0
- Lambsquarters plant response rating [19, 27]: 0
- Foxtail, Giant plant response rating [20, 28]: 0
- Foxtail, Giant plant response rating [20, 29]: 0
- Foxtail, Giant plant response rating [20, 30]: 0
- Foxtail, Giant plant response rating [20, 31]: 0
- Rice plant response rating [21]: 60
- Ducksalad plant response rating [22]: 60
- Crabgrass, Large plant response rating (0 to 100 scale) [23, 24]: 0
- Crabgrass, Large plant response rating [23, 25]: 0
- Plant response rating, Crabgrass, Large [23, 26]: 0
- Crabgrass, Large plant response rating [23, 27]: 0

SMILES: CCNC(=O)c1cccc(NC(=O)c2nn(C3CCCC3)nc2CC)c1 [Compound 356]
- Plant response rating (0 to 100 scale), Corn [1, 32]: 10
- Corn plant response rating [1, 25]: 0
- Plant response rating, Corn [1, 26]: 50
- Corn plant response rating [1, 27]: 0
- Plant response rating (0 to 100 scale), Foxtail, Giant [2, 32]: 10
- Foxtail, Giant plant response rating [2, 25]: 30
- Plant response rating, Foxtail, Giant [2, 26]: 80
- Foxtail, Giant plant response rating [2, 27]: 30
- Crabgrass, Large plant response rating [3, 29]: 10
- Plant response rating, Crabgrass, Large [3, 33]: 15
- Crabgrass, Large plant response rating [3, 34]: 20
- Crabgrass, Large plant response rating [3, 31]: 10
- Barnyardgrass plant response rating [4]: 50
- Plant response rating (0 to 100 scale), Pigweed [5, 32]: 70
- Pigweed plant response rating [5, 25]: 30
- Plant response rating, Pigweed [5, 26]: 100
- Pigweed plant response rating [5, 27]: 70
- Morningglory plant response rating [6, 29]: 10
- Plant response rating, Morningglory [6, 33]: 20
- Morningglory plant response rating [6, 34]: 15
- Morningglory plant response rating [6, 31]: 5
- Sedge, Umbrella plant response rating [7]: 70
- Velvetleaf plant response rating [8, 29]: 10
- Plant response rating, Velvetleaf [8, 33]: 10
- Velvetleaf plant response rating [8, 34]: 20
- Velvetleaf plant response rating [8, 31]: 0
- Oat, Wild plant response rating [9, 25]: 0
- Oat, Wild plant response rating [9, 27]: 20
- Plant response rating (0 to 100 scale), Barnyardgrass [10, 32]: 60
- Barnyardgrass plant response rating [10, 25]: 0
- Plant response rating, Barnyardgrass [10, 26]: 80
- Barnyardgrass plant response rating [10, 27]: 0
- Pigweed plant response rating [11, 29]: 65
- Plant response rating, Pigweed [11, 33]: 70
- Pigweed plant response rating [11, 34]: 80
- Pigweed plant response rating [11, 31]: 25
- Barnyardgrass plant response rating [12, 29]: 25
- Plant response rating, Barnyardgrass [12, 33]: 40
- Barnyardgrass plant response rating [12, 34]: 45
- Barnyardgrass plant response rating [12, 31]: 5
- Plant response rating (0 to 100 scale), Velvetleaf [13, 32]: 0
- Velvetleaf plant response rating [13, 27]: 0
- Plant response rating (0 to 100 scale), Surinam Grass [14, 32]: 10
- Surinam Grass plant response rating [14, 25]: 10
- Plant response rating, Surinam Grass [14, 26]: 60
- Surinam Grass plant response rating [14, 27]: 20
- Wheat plant response rating [15, 25]: 0
- Wheat plant response rating [15, 27]: 10
- Plant response rating (0 to 100 scale), Morningglory [16, 32]: 0
- Morningglory plant response rating [16, 25]: 0
- Plant response rating, Morningglory [16, 26]: 10
- Morningglory plant response rating [16, 27]: 10
- Plant response rating (0 to 100 scale), Cocklebur [17, 32]: 0
- Plant response rating, Cocklebur [17, 26]: 20
- Cocklebur plant response rating [17, 27]: 0
- Blackgrass plant response rating [18, 25]: 0
- Blackgrass plant response rating [18, 27]: 10
- Plant response rating (0 to 100 scale), Lambsquarters [19, 32]: 40
- Lambsquarters plant response rating [19, 25]: 10
- Plant response rating, Lambsquarters [19, 26]: 100
- Lambsquarters plant response rating [19, 27]: 50
- Foxtail, Giant plant response rating [20, 29]: 10
- Plant response rating, Foxtail, Giant [20, 33]: 10
- Foxtail, Giant plant response rating [20, 34]: 45
- Foxtail, Giant plant response rating [20, 31]: 20
- Rice plant response rating [21]: 50
- Ducksalad plant response rating [22]: 60
- Plant response rating (0 to 100 scale), Crabgrass, Large [23, 32]: 40
- Crabgrass, Large plant response rating [23, 25]: 10
- Plant response rating, Crabgrass, Large [23, 26]: 90
- Crabgrass, Large plant response rating [23, 27]: 30
